In patent publication US20240018230A1, “METHODS FOR TREATING OR MODULATING AN INFLAMMATORY RESPONSE” (St. Jude Children's Research Hospital, Inc., priority 2020, published 2024):

Key:
[1] = tested on: bone marrow-derived macrophages (BMDMs); assay: Real-time imaging of cell death (propidium iodide, INCUCYTE) in BMDMs; format: cell-based, mouse; conditions: for induction of cell death in BMDMs: standard cytokine concentrations (25 ng/mL TNF-α, 50 ng/mL IFN-γ); for inhibition of cell death in response to TNF-α and IFN-γ treatment: wild-type BMDMs co-treated with 1 mM L-NAME or 100 μM 1400W
BMDMs = assay: Immunoblot analysis of cell death effectors in BMDMs; format: cell-based, mouse; conditions: for cleavage of caspase-3, -7 and -8: single cytokines compared with the combination
[2] = tested on: HCT-116 colon cancer cells; assay: Western blot of PANoptosis markers in HCT-116; format: cell-based, human
Procedure: Western Blot Analysis. For the western blot analyses of caspases, cancer cells were seeded a day before stimulation at a density of 0.5×10^6 cells/well in 6-well cell culture plates. The proteins from the indicated cell types were collected by combining cell lysates with culture supernatants with caspase lysis buffer (with 1× protease inhibitors, 1× phosphatase inhibitors, 10% NP-40, and 25 mM DTT) and 4× sample loading buffer (containing SDS and 2-mercaptoethanol). For the western blot analysis of all other signaling proteins, the cells were lysed in RIPA buffer, supplemented with protease inhibitor and phosphoStop as per the manufacturer's instructions and sample loading buffer. […]

[3] = tested on: colon cancer and melanoma cell lines; assay: NO inhibition of TNF-α plus IFN-γ-induced cancer cell death; format: cell-based, human; conditions: 1 mM L-NAME or 100 μM 1400W
Procedure: Cell Culture and Stimulation Methods. […] Cancer cells were seeded a day before stimulation. On the day of stimulation, the cells were washed once with warm and sterile DPBS, followed by treatment with different cytokines for 48 hours. The concentration of the cytokines used were 25 ng/mL of IL-6 (Peprotech), IL-8 (Peprotech), IL-18 (R&D), IL-15 (Peprotech), IL-1α (Peprotech), IL-1β (Peprotech), IL-2 (Peprotech), TNF-α (Peprotech), and IFN-γ (Peprotech). For the inhibition of nitric oxide (NO), cancer cells were co-treated with 1 mM of L-NAME hydrochloride (TOCRIS) or 100 μM of […] dihydrochloride (Enzo Life Sciences) along with the cytokines. For inhibition of the JAK signaling pathway, the cancer cells were co-treated with 5 μM of baricitinib (Achemblock) all through the experiment. Cell Death Analysis. The kinetics of cell death were measured using a two-color INCUCYTE® S3 imaging system (Essen Biosciences). […] A series of images were acquired at 1-hour time intervals for up to 48 hours post-treatment with a 20× objective and analyzed using the INCUCYTE® S3 software, which allows precise analysis of the number of dye-positive dead cells present in each image. […]

[4] = In vivo TNF-α and IFN-γ-induced inflammatory shock (mortality, serum chemistry, blood counts, flow cytometry, histopathology); set-up: species or system mice; conditions: i.p. 10 μg TNF-α, 20 μg IFN-γ, or both
Procedure: In vivo TNF-α and IFN-γ-Induced Inflammatory Shock. Six- to eight-week-old mice of the indicated genotypes were injected intraperitoneally with 10 μg TNF-α alone, 20 μg IFN-γ alone, or TNF-α+IFN-γ diluted in endotoxin-free PBS. Animals were under permanent observation, and survival was assessed every 30 minutes. Blood was collected 5 hours after cytokine injection. Blood composition was analyzed using an automated hematology analyzer. Serum lactate dehydrogenase (LDH), alanine aminotransferase (ALT), aspartate aminotransferase (AST), blood urea nitrogen (BUN), and ferritin were analyzed by colorimetry using respective kits (LDH, ALT, AST, and BUN, all from HORIBA; and ferritin from Abcam) according to the manufacturer's instructions.
Flow Cytometry Methods. Peripheral blood was mixed with ACK lysis buffer for 3 minutes to lyse the red blood cells (RBCs). The cells were then stained with monoclonal antibodies for the following markers for flow cytometry: CD11b from eBioscience; F4/80, Ly6C, and Ly6G from BioLegend; and CD19, TCRb, and CD45.2 from Tonbo Biosciences. […]
Histopathology Methods. […] The number of cleaved caspase-3- and TUNEL-positive cells in five high power fields (20×) were counted per mouse.

COLO-205 cell tumors = assay: NSG mouse xenograft tumor model, intratumoral cytokines; format: in vivo, NSG mice; conditions: intra-tumoral administration on day 12, 14 and 16 post-transplantation
Procedure: NSG Mouse Xenograft Tumor Model. The NSG mice (NOD/SCID-gamma null mouse strain that lacks […]) were used as the model recipients for the subcutaneous transplantation of human COLO-205 cancer cells. Briefly, 8- to 10-week-old NSG mice were shaved on their lower backs and transplanted with 2×10^6 COLO-205 cells in 200 μl of medium prepared by mixing (1:1) RPMI and a solubilized basement membrane preparation sold under the tradename MATRIGEL® (BD Bioscience). The mice were monitored regularly for engraftment and growth of COLO-205 cancer cell tumors. The recipient mice were divided into four groups and treated intratumorally with injection of the indicated cytokines or PBS (groups: (i) PBS, (ii) TNF-α, (iii) IFN-γ, or (iv) TNF-α(and IFN-γ) on day 12, 14 and 16 post-transplantation of the tumor cells. The tumor growth was monitored and measured using digital calipers, and the volume of the tumors were calculated using the formula: volume=(length×width^2)×½.

Row | Molecule | induction of cell death in BMDMs [1] | cleavage of GSDMD and GSDME (combination: GSDME) (BMDMs) | phosphorylation of MLKL (BMDMs) | cleavage of caspase-3, -7 and -8 (BMDMs) | activation of biochemical markers of PANoptosis in HCT-116 [2] | inhibition of cell death in response to TNF-α and IFN-γ treatment [1] | inhibition of cancer cell death induced by TNF-α plus IFN-γ treatment [3] | mortality in mice [4] | other results
1 | IFN-γ: recombinant IFN-γ protein (Peprotech) | failed to induce cell death | did not induce robust cleavage | failed to induce robust MLKL phosphorylation | reduced cleavage | only weak activation |  |  |  | 
2 | CC(=N)NCc1cccc(CN)c1 [1400W, N-[[3-(aminomethyl)phenyl]methyl]-ethanimidamide] |  |  |  |  |  | inhibited cell death | failed to inhibit |  | 
3 | TNF-α | failed to induce cell death | did not induce robust cleavage | failed to induce robust MLKL phosphorylation | reduced cleavage | only weak activation |  |  | did not cause significant mortality | tumor weight (COLO-205 cell tumors): minor but significant reduction
4 | [NH-]c1c[n+](N2CCOCC2)no1 [SIN-1] |  |  |  |  |  |  |  |  | kinetics of cell death induced by NO donor ([1]; wild-type BMDMs, increasing concentrations of SIN-1): proportional to the NO concentration
5 | COC(=O)[C@@H](N)CCCNC(=N)N[N+](=O)[O-] [L-NAME, N5-[imino(nitroamino)methyl]-L-ornithine methyl ester] |  |  |  |  |  | inhibited cell death | failed to inhibit |  | 
6 | IFN-γ: recombinant IFN-γ protein (Peprotech) (protein, UniProt P01579 24-161, looked up) Interferon gamma: QDPYVKEAENLKKYFNAGHSDVADNGTLFLGILKNWKEESDRKIMQSQIVSFYFKLFKNFKDDQSIQKSVETIKEDMNVKFFNSNKKKRDDFEKLTNYSVTDLNVQRKAIHELIQVMAELSPAAKTGKRKRSQMLFRG |  |  |  |  |  |  |  | did not cause significant mortality | 
